Experiments:
[1] = tested on: newly-diagnosed, EGFRvIII+ GBM
Protocol: In patients with newly-diagnosed, EGFRvIII+ GBM, after resection and radiation/TMZ, patients received CDX-110 vaccinations biweekly×3, then monthly until tumor progression in combination with TMZ (200 mg/m^2×5/28 days). […] The others received saline in a double-blinded fashion.

human TRegs = experiment: Daclizumab on human TRegs in vitro; type: cell-based
OVA-specific T-cells = experiment: Antigen-specific vaccination after TMZ-induced lymphopenia in mice, with or without anti-IL-2Rα; type: in vivo; settings: TMZ pre-treatment
Protocol: (§1) It also induces transient, Grade 3 lymphopenia (<500 cells/uL) in 70% of patients with GBM after the first cycle (150-200 mg/m2/5 d) with nadirs occurring 14-21 days after treatment (n=10). TMZ treatment also leads to an increase in the proportion of TRegs in the peripheral blood (unpublished). Despite this, we have been able to induce and maintain potent EGFRvIII-specific humoral and cellular immune responses in patients with GBM receiving TMZ. Thus, we evaluated TMZ for its capacity to induce homeostatic proliferation and to enhance antigen-specific immune responses in a murine model. Markedly elevated levels of antigen-specific T-cells could be achieved and maintained in mice receiving antigen-specific vaccination after TMZ-induced lymphopenia when compared to normal hosts.

[2] = TMZ-induced lymphopenia in patients with GBM; type: in vivo, human; settings: after the first cycle (150-200 mg/m2/5 d), n=10
Protocol: as §1

[3] = after expansion post vaccination

Compound	OS (overall survival) ([1]; both arms)	TTP (time to progression) ([1]; both arms)	overall CD8+ or CD4+ T-cell counts ([1]; daclizumab 1 mg/Kg×1, preliminary analysis n=4)	EGFRvIII-specific immune responses ([1]; daclizumab arm, preliminary analysis n=4, p=0.01 t-test)	titer of cytotoxic EGFRvIII-specific IgG1 isotype antibodies ([1]; human, in vivo)	Treg (CD4+CD25+CD45RO+FOXP3+) numbers, change from baseline ([1]; reduction, daclizumab 1 mg/Kg×1 at first vaccine, preliminary analysis n=4, p=0.011 t-test)	effector T-cell function (human TRegs; in vitro)	human TRegs (human TRegs; in vitro)	CD4+ T-cell responses (human TRegs; preliminary in vitro studies with human TRegs in the presence of daclizumab)	OVA-specific T-cells, frequency of circulating CD8+ T-cells (OVA-specific T-cells; 4 weeks post-vaccination)	OVA-specific T-cells, absolute count after vaccination (OVA-specific T-cells; [3])	OVA-specific T-cells, frequency of circulating CD8+ T-cells after vaccination (OVA-specific T-cells; [3])	OVA-specific T-cells, absolute count, start of expansion (OVA-specific T-cells; starting count)	OVA-specific T-cells, frequency of circulating CD8+ T-cells, start of expansion (OVA-specific T-cells; starting frequency)	patients with transient Grade 3 lymphopenia (<500 cells/uL) [2]	time of lymphopenia nadirs after treatment [2]
daclizumab: commercially available humanized IL-2Rα-specific antibody	has not been reached	has not been reached	without reducing	enhanced	enhanced	82.4±7.1%	increase	reduction	enhancement	–	–	–	–	–	–	–
Cn1nnc2c(C(N)=O)ncn2c1=O [TMZ, temozolomide]	–	–	–	–	–	–	–	–	–	21.18%	42.61 cells/uL	10.64%	3.41 cells/uL blood	0.40%	70%	14 to 21 days

From US20150307614A1, “Enhanced immunological responses” (Duke University, priority 2009, published 2015)
